These are literature values, as cited in paper PMC4584145 (Antiviral chemistry & chemotherapy, 2011).

Data set [1] deals with 5-helix complex (three N-HRs and two C-HRs).
The test system of a further data set is N-HR of HIV-1 gp41. The conditions noted are these: ELISA; N-HR containing amino acid positions 18 to 73. For orientation: An ELISA detects its analyte on a solid surface through an enzyme-linked reagent.

Enfuvirtide [T20]: the “interaction with artificial 5-helix complex” value in data set [1] is “much weaker than that between C34 and the complex”. For the same substance, the “binding to the N-HR” value in the data set on N-HR of HIV-1 gp41 is “binds weakly”.
For the substance “C34: representative C-HR-derived peptide that inhibits HIV-1 fusion to host cells”, in the data set with N-HR of HIV-1 gp41, the “binding to the N-HR” value is reported as “binds strongly”.
